Assays:
Experiment in all cases: Drought stress test on potted crop plants in greenhouse, spray application, efficacy from damage values
Assay type in all cases: in vivo
Zea mays (ZEAMX) = conditions: percentage reduction in the intensity of damage
Experimental: (§1) Seeds of monocotyledonous and dicotyledonous crop plants were laid out in sandy loam in wood-fiber pots, covered with soil or sand and cultivated in a greenhouse under good growth conditions. The test plants were treated at the early leaf stage (BBCH10-BBCH13). To assure uniform water supply before commencement of stress, the potted plants were supplied with water by dam irrigation prior to substance application. The compounds according to the invention, formulated in the form of wettable powders (WP), were sprayed onto the green parts of the plants as an aqueous suspension at an equivalent water application rate of 600 l/ha with addition of 0.2% wetting agent (e.g. agrotin). Substance application was followed immediately by stress treatment of the plants. For this purpose, the pots were transferred into plastic inserts in order to prevent them from subsequently drying out too quickly. Drought stress was induced by gradual drying out under the following conditions: “Day”: 14 hours with illumination at 26° C. “Night”: 10 hours without illumination at 18° C. The duration of the respective stress phases was guided mainly by the state of the untreated, stressed control plants and thus varied from crop to crop. It was ended (by re-irrigating and transfer to a greenhouse with good growth conditions) as soon as irreversible damage was observed on the untreated, stressed control plants. In the case of dicotyledonous crops, for example oilseed rape and soya, the duration of the drought stress phase varied between 3 and 6 days, in the case of monocotyledonous crops, for example wheat, barley or corn, between 6 and 11 days. The end of the stress phase was followed by an approx. 5-7-day recovery phase, during which the plants were once again kept under good growth conditions in a greenhouse. In order to rule out any influence of the effects observed by any fungicidal or insecticidal action of the test compounds, it was additionally ensured that the tests proceeded without fungal infection or insect infestation. After the recovery phase had ended, the intensities of damage were analyzed in visual comparison to untreated, unstressed controls of the same age. The intensity of damage was first recorded as a percentage (100%=plants have died, 0%=like control plants). These values were then used to calculate the efficacy of the test compounds (=percentage reduction in the intensity of damage as a result of substance application) by the following formula: [formula] EF: efficacy (%) DVus: damage value of the untreated, stressed control DVts: damage value of the plants treated with test compound In each trial, 3 pots per crop and dosage were treated and evaluated; the resulting efficacies are thus averages. The values in tables A-1 to A-3 below are again averages from one to three independent trials. BRSNS=Brassica napus TRZAS=Triticum aestivum ZEAMX=Zea mays

[1] = tested on: Triticum aestivum (TRZAS); conditions: topical, percentage reduction in the intensity of damage, read-out: EF (TRZAS) efficacy; for pest or weed control at 250 g/ha: dosage 250 g/ha
Experimental: as §1

Brassica napus (BRSNS) = conditions: spray at 600 l/ha water, averages from one to three trials
Experimental: as §1

| Structure (SMILES) | EF (ZEAMX) efficacy (Zea mays (ZEAMX); dosage 250 g/ha) [%] | pest or weed control at 250 g/ha [1] [%] | EF (BRSNS): efficacy = percentage reduction in the intensity of damage as a result of substance application (Brassica napus (BRSNS); dosage 25 g/ha) [%] | EF (BRSNS): efficacy = percentage reduction in the intensity of damage as a result of substance application (Brassica napus (BRSNS); dosage 250 g/ha) [%] | EF (ZEAMX) efficacy (Zea mays (ZEAMX); dosage 25 g/ha) [%] | pest or weed control at 25 g/ha ([1]; dosage 25 g/ha) [%] |
| --- | --- | --- | --- | --- | --- | --- |
| CC12CCC(C1)C(C)(C)C2(O)C#Cc1ccccc1F (stereo not drawn) [I.1-1] | >5 | > 5 | >5 | – | – | – |
| CC12CCC(C1)C(C)(C)C2(O)C#Cc1ccccc1NS(C)(=O)=O (stereo not drawn) [I.1-88] | – | – | – | >5 | – | – |
| CC(=O)Oc1ccccc1C#CC1(O)C2(C)CCC(C2)C1(C)C (stereo not drawn) [I.1-79] | – | > 5 | – | >5 | >5 | – |
| COC(=O)c1ccccc1C#CC1(O)C2CCC(C2)C12CC2 (stereo not drawn) [I.29-26] | – | – | – | – | – | > 5 |
| CC12CCC(C1)C(C)(C)C2(O)C#Cc1ccccc1CC#N (stereo not drawn) [I.1-74] | >5 | > 5 | – | >5 | – | – |
| COC(=O)c1cc(C)ccc1C#CC1(O)CC2CCC1C2 (stereo not drawn) [I.21-33] | >5 | > 5 | – | >5 | – | – |
| COC(=O)c1ccccc1C#CC1(O)C2(C)CCC(C2)C1(C)C (stereo not drawn) [I.1-116] | – | > 5 | >5 | – | >5 | – |
| COC(=O)c1ccccc1C#CC1(O)C2CC3CC(C2)CC1C3 (stereo not drawn) [I.19-30] | – | > 5 | >5 | – | – | – |
| COC(=O)c1ccccc1C#CC1(O)C(C)CCC2C1C2(C)C (stereo not drawn) [I.35-26] | >5 | > 5 | – | – | – | – |
